Data published in the supplement of paper PMC10307832.

Key:
Experiment in all cases: relative viability (nuclei count vs DMSO), 5 days (fraction); higher = more cells survive
[1] = compound: CN1CCC(CNc2ccc3ncc(-c4cccc(OC(F)(F)F)c4)n3n2)CC1 [SGI-1776] + COc1cccc2cc(-c3nc([C@H]4CC[C@H](C(=O)O)CC4)n4ncnc(N)c34)[nH]c12 [OSI-027] (partner 0.5 µM)
Procedure, shortened: (§1)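 Lung cancer cell lines were pin-tool dosed in 1536-well plates on the day after seeding, with either a lone drug or a fixed anchor-drug dose plus five library-drug doses (not always all listed) in √10 steps. Nuclei were counted on 4× images after 5 days. Relative viability is the ratio of treated-well to vehicle-well nuclei counts, with each value a median of duplicate plates.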

[2] = compound: C1COCCN1C2=NC(=NC3=C2OC4=C3C=CC=N4)C5=CC(=CC=C5)NC(=O)C6=CN=C(C=C6)N + Cc1nc(Nc2ncc(C(=O)Nc3c(C)cccc3Cl)s2)cc(N2CCN(CCO)CC2)n1 [Dasatinib] (partner 0.075 µM)
Procedure, shortened: as §1

[3] = compound: C1COCCN1C2=NC(=NC3=C2OC4=C3C=CC=N4)C5=CC(=CC=C5)NC(=O)C6=CN=C(C=C6)N + Cc1nc(NC(=O)N2CCC[C@H]2C(N)=O)sc1-c1ccnc(C(C)(C)C(F)(F)F)c1 [Alpelisib] (partner 2 µM)
Procedure, shortened: as §1

[4] = compound: CN1CCC(CNc2ccc3ncc(-c4cccc(OC(F)(F)F)c4)n3n2)CC1 [SGI-1776] + Nc1nc2[nH]cc(CCc3ccc(C(=O)N[C@@H](CCC(=O)O)C(=O)O)cc3)c2c(=O)[nH]1 [Pemetrexed] (partner 0.2 µM)
Procedure, shortened: as §1

Cell Line	relative viability ([1]; first compound 0.08 µM)	relative viability ([1]; first compound 0.8 µM)	relative viability ([1]; first compound 2.53 µM)	relative viability ([1]; first compound 8 µM)	relative viability ([2]; first compound 0.02 µM)	relative viability ([2]; first compound 0.06325 µM)	relative viability ([2]; first compound 0.2 µM)	relative viability ([2]; first compound 0.6325 µM)	relative viability ([2]; first compound 2 µM)	relative viability ([3]; first compound 0.02 µM)	relative viability ([3]; first compound 0.06325 µM)	relative viability ([3]; first compound 0.2 µM)	relative viability ([3]; first compound 0.6325 µM)	relative viability ([3]; first compound 2 µM)	relative viability ([4]; first compound 0.08 µM)	relative viability ([4]; first compound 0.8 µM)	relative viability ([4]; first compound 2.53 µM)	relative viability ([4]; first compound 8 µM)
SK-LU-1	0.397	0.328	0.335	0.166	0.153	0.188	0.168	0.176	0.16	0.956	1.04	0.879	0.749	0.473	1.02	0.932	1.1	0.781
NCI-H838	0.414	0.401	0.308	0.246	0.291	0.299	0.271	0.314	0.249	1.12	0.945	0.923	0.968	0.524	0.232	0.29	0.258	0.189
LOU-NH91	0.777	0.726	0.826	0.56	0.537	0.546	0.587	0.56	0.357	0.696	0.728	0.768	0.749	0.667	0.371	0.371	0.405	0.446
BEN	0.316	0.289	0.264	0.323	0.309	0.297	0.334	0.371	0.325	1.07	1.04	1.01	0.931	0.613	0.806	0.811	0.712	0.615
NCI-H2085	0.745	0.828	0.853	0.44	0.223	0.252	0.25	0.204	0.258	0.956	0.988	0.926	0.909	0.596	0.936	1.06	0.971	0.788
LCLC-103H	0.481	0.446	0.457	0.425	0.433	0.468	0.479	0.514	0.344	0.87	0.993	0.962	0.967	0.878	0.488	0.446	0.452	0.466
NCI-H650	0.565	0.489	0.501	0.378	0.475	0.453	0.416	0.442	0.385	1.07	1.12	1.06	1.04	0.824	1.02	0.91	0.949	0.841
NCI-H1792	0.764	0.68	0.688	0.514	0.746	0.79	0.768	0.464	1.13	0.55	0.717	0.768	0.351	0.358	0.965	0.754	0.745	0.649
EPLC-272H	0.32	0.249	0.306	0.274	0.295	0.359	0.267	0.309	0.219	0.972	0.883	0.974	0.967	0.673	0.423	0.362	0.351	0.246
NCI-H1563	0.749	0.8	0.674	0.614	0.505	0.453	0.437	0.461	0.578	0.886	0.871	0.855	0.843	0.729	0.929	0.847	0.765	0.726
EKVX	0.707	0.736	0.755	0.612	0.593	0.584	0.513	0.463	0.571	0.838	0.787	0.94	0.867	0.572	0.396	0.477	0.395	0.371
NCI-H1666	0.953	0.853	0.759	0.674	0.865	0.761	0.658	0.632	0.517	1.02	0.906	0.794	0.775	0.549	0.895	0.917	0.893	0.789
HCC-15	0.655	0.651	0.559	0.437	0.677	0.612	0.567	0.561	0.476	0.901	0.848	0.843	0.827	0.637	0.229	0.226	0.223	0.197
LCLC-97TM1	0.597	0.487	0.59	0.487	0.865	0.939	0.762	0.914	0.675		0.265	0.208	0.313	0.249	0.182	0.2	0.143	0.182
NCI-H2347	0.421	0.489	0.518	0.426	0.291	0.257	0.349	0.321	0.323	1.06	1.03	1.06	0.998	0.842	0.471	0.419	0.469	0.338
NCI-H1915	0.642	0.645	0.618	0.49	0.277	0.329	0.331	0.349	0.264	1.01	1.17	1.08	1.05	0.971	0.481	0.463	0.497	0.47
NCI-H647	0.712	0.613	0.559	0.301	0.196	0.2	0.174	0.164	0.0709	1.21	1.33	0.996	1.21	0.356	0.172	0.151	0.166	0.145
NCI-H520	0.255	0.263	0.249	0.223	0.227	0.188	0.219	0.177	0.131	0.914	0.923	0.971	1.02	0.406	0.784	0.692	0.553	0.348
